The test has as its target T1, P2X purinoceptor 7 (Homo sapiens, UniProt Q99572).
T1 sequence (Q99572 whole entry): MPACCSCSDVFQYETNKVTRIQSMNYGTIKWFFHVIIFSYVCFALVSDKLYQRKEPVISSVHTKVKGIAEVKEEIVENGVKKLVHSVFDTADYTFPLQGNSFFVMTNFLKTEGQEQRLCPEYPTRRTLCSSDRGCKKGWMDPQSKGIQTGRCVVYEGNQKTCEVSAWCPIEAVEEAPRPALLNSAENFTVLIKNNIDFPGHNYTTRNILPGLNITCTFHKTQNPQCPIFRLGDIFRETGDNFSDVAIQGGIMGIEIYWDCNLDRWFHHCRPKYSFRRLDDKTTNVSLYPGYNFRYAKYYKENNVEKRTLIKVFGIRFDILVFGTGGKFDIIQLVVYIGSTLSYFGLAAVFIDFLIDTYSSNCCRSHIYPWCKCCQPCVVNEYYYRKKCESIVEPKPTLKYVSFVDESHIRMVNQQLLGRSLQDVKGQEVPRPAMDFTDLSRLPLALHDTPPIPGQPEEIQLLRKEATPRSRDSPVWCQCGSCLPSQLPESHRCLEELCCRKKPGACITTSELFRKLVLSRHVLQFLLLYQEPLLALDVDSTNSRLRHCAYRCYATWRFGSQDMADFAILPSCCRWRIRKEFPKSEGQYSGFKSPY
The experiment in a line: Pore Permeation Assay. How it is done: Agonist-induced pore formation was determined by measuring cellular uptake of YO PRO fluorescence dye in HEK293 transfected with human P2X7 receptor. A HEK293 cell over expressing human P2X7 was harvested using HQTase reagent to detach the cells from T75 cm flask. The harvested cells are centrifuged @1200 rpm for 5 min at room temperature. The viability of cells was determined by Trypan blue dye and the cells are plated @10,000 cell/well in 50 ul volume in a 384W BD Poly lysine coated plate and incubated overnight at 37 C. […] The plate was centrifuged at 1000 rpm for 5 seconds and incubated at room temperature for 30 minutes. The uptake of YO PRO dye into the cells was measured using Envision Fluorescence plate reader instrument (Perkin Elmer).

A value given as a limit tells only on which side of the number the result lay.

As a reminder, the IC50 is the midpoint of a concentration-inhibition curve. A high value points to weaker potency in that assay. `CCN(C)C(=O)Cn1cc(C(=O)NCC2CCC(F)(F)CC2)c2c(Cl)cccc21` [US10323000, Compound 163] gave an IC50 of under 10 nM.

For the origin of these results see BindingDB's records for patent US10323000 (Merck Patent, 2019).
